Test results published in patent US20230312576A1, “4-(7H-PYRROLO[2,3-D]PYRIMIDIN-4-YL)-3,6-DIHYDROPYRIDINE-1-(2H)-CARBOXAMIDE DERIVATIVES AS LIMK AND/OR ROCK KINASES INHIBITORS FOR USE IN THE TREATMENT OF CANCER” (CENTRE NATIONAL DE LA RECHERCHE SCIENTIFIQUE, priority 2020, published 2023).
Like-named read-outs stand apart in the source and are kept apart here.

Key:
[1] = target: LIMK1 (Homo sapiens (Human), UniProt P53667); assay: Lanthascreen Eu binding assay (TR-FRET), inhibition of LIMK1
[2] = target: LIMK2 (Homo sapiens (Human), UniProt P53671); assay: Lanthascreen Eu binding assay (TR-FRET), inhibition of LIMK2
Chain of LIMK2 (P53671 whole entry): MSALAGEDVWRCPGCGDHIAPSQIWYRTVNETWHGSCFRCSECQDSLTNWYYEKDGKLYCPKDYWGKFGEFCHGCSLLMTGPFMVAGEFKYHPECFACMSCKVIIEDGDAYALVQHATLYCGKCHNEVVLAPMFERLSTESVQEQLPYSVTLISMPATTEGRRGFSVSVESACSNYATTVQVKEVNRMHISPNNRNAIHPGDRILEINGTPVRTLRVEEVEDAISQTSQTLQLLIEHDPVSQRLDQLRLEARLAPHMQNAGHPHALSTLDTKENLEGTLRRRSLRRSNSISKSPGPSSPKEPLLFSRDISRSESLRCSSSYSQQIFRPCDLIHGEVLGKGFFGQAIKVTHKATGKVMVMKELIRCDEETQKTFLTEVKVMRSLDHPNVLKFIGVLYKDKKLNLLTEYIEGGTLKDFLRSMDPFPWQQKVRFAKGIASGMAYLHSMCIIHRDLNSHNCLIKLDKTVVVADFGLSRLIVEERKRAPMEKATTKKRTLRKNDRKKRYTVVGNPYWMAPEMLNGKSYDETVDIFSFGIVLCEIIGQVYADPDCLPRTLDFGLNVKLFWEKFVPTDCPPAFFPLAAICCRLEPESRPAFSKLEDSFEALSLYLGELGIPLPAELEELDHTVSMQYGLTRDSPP

[3] = target: ROCK1 (Homo sapiens (Human), UniProt Q13464); assay: Z'Lyte assay, ROCK1 inhibition at a single concentration; format: biochemical
Chain of ROCK1 (Q13464 whole entry): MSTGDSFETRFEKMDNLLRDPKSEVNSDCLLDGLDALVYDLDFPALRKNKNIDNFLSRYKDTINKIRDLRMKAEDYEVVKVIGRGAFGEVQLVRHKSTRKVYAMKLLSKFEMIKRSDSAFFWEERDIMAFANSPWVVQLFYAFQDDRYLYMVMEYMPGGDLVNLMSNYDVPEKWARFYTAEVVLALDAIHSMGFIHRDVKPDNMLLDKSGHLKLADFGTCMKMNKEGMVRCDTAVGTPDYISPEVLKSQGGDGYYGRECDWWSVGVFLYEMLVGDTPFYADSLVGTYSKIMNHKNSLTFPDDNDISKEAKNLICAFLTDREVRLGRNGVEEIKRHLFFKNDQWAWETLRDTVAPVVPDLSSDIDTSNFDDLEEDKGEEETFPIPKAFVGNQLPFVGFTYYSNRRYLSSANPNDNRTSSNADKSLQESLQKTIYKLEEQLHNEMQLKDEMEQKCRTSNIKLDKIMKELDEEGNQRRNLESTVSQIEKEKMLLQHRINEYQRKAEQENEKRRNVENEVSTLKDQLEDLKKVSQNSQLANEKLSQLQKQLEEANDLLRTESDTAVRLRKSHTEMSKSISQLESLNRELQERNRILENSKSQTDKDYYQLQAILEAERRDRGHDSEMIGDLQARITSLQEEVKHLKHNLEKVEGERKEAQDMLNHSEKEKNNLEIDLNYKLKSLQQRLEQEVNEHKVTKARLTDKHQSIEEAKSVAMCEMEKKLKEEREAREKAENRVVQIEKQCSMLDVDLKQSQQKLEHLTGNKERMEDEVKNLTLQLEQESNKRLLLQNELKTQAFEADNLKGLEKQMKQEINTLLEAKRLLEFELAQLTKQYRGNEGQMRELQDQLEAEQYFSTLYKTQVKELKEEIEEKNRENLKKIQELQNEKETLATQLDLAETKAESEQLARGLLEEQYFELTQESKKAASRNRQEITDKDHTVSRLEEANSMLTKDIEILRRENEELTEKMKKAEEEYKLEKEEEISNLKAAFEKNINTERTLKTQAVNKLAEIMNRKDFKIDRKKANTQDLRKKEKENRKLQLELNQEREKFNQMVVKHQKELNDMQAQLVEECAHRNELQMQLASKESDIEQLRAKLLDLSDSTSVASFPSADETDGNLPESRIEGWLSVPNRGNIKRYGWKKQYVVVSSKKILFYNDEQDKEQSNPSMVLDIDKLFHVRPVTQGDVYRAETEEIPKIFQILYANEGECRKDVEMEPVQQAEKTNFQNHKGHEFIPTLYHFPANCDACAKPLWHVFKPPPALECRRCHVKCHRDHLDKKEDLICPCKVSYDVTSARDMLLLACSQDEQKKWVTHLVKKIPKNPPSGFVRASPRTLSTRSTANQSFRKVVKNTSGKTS

[4] = target: ROCK2 (Homo sapiens (Human), UniProt O75116); assay: Z'Lyte assay, ROCK2 inhibition at a single concentration; format: biochemical
Chain of ROCK2 (O75116 whole entry): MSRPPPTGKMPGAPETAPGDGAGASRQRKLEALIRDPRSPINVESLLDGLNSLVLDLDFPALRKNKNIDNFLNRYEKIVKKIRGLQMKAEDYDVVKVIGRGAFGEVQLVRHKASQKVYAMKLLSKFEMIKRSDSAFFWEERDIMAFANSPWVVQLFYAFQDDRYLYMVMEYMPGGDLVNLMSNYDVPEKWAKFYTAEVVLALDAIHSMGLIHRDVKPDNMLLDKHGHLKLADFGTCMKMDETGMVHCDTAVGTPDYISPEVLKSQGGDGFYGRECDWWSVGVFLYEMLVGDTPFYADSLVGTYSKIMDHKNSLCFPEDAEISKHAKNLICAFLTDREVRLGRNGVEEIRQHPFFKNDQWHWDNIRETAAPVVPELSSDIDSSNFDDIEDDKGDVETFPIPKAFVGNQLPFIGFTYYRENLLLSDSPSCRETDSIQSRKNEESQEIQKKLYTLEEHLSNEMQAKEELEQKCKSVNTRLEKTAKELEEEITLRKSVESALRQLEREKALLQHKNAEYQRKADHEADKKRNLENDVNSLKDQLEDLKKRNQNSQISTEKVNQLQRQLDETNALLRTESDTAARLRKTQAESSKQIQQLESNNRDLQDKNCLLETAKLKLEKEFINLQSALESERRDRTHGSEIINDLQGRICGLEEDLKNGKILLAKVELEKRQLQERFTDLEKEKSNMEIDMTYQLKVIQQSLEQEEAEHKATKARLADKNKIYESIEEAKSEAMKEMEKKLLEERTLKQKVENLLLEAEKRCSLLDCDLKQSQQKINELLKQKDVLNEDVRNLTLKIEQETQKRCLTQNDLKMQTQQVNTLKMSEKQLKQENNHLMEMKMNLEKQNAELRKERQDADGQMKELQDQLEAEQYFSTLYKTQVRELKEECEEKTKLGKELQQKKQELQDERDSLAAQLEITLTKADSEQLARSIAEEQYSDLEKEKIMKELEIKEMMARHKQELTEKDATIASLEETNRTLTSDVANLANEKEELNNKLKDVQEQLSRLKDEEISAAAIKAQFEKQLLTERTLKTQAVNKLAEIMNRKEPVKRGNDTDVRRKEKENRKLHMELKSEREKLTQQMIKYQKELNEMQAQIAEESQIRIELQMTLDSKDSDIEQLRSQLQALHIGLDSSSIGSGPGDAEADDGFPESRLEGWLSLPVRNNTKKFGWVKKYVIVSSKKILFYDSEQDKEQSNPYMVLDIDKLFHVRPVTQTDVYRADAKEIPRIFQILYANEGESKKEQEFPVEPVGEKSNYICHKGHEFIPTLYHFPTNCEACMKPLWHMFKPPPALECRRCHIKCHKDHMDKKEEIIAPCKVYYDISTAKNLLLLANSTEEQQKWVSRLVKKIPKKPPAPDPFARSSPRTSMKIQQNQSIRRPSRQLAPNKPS

[5] = read-out: % inhibition (ROCK1) 1 uM, 1 uM
[6] = read-out: % inhibition (ROCK2) 1 uM, 1 uM
[7] = read-out: % inhibition (ROCK1) 1 uM
[8] = read-out: % inhibition (ROCK2) 1 uM

Chain of LIMK1 (P53667 whole entry): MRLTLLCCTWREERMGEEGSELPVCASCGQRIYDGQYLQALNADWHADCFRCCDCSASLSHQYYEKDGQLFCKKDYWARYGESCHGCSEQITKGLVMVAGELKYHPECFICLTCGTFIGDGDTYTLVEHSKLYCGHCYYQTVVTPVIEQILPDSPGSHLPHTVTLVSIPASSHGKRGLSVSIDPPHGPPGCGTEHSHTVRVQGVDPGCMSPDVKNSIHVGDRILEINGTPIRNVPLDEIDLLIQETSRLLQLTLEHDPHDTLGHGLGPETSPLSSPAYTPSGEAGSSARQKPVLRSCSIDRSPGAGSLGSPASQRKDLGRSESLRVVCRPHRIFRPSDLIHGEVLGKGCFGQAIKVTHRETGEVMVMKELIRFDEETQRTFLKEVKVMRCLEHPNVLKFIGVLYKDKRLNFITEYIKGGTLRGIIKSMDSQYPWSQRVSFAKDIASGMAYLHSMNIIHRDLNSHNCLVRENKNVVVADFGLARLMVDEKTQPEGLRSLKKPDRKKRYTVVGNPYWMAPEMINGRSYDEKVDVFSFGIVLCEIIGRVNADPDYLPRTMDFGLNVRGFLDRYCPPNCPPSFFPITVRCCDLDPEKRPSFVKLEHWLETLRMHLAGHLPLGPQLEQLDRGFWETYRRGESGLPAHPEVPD

Ki ([1]; Lanthascreen Eu binding assay) | Ki ([2]; Lanthascreen Eu binding assay) | inhibition at 1 µM [3, 5] | inhibition at 1 µM [4, 6] | SMILES | inhibition at 1 µM [3, 7] | inhibition at 1 µM [4, 8] | Ki [1] | Ki [2] | % inhibition (ROCK1) 1 uM [3] | % inhibition (ROCK2) 1 uM [4]
30.2 nM | 20.5 nM | 7% | -5% | O=C(Nc1cccc(Oc2ccccc2)c1)N1CC=C(c2ncnc3[nH]c4c(c23)CCCC4)CC1 [Compound 126, N-(3-Phenoxyphenyl)-4-(6,7,8,9-tetrahydro-5H-pyrimido[4,5-b]indol-4-yl)-3,6-dihydropyridine-1(2H)-carboxamide] | – | – | – | – | – | –
1170 nM | 2440 nM | 1% | -9% | CN1CCc2[nH]c3ncnc(C4=CCN(C(=O)Nc5cccc(F)c5)CC4)c3c2C1 [Compound 160, N-(3-Fluorophenyl)-4-(6-methyl-6,7,8,9-tetrahydro-5H-pyrido[3′,4′:4,5]pyrrolo[2,3-d]pyrimidin-4-yl)-3,6-dihydropyridine-1(2H)-carboxamide] | – | – | – | – | – | –
48.4 nM | 41.2 nM | -2% | 4% | CC(C)(C)OC(=O)NCCCOc1cccc(-c2cccc(NC(=O)N3CC=C(c4ncnc5[nH]c6c(c45)CCC6)CC3)c2)c1 [Compound 164, tert-butyl (3-((3′-(4-(5,6,7,8-tetrahydrocyclopenta[4,5]pyrrolo[2,3-d]pyrimidin-4-yl)-1,2,3,6-tetrahydropyridine-1-carboxamido)-[1,1′-biphenyl]-3-yl)oxy)propyl)carbamate] | – | – | – | – | – | –
65 nM | 50.8 nM | 48% | 33% | Cc1c[nH]c2ncnc(C3=CCN(C(=O)Nc4cccc(OCCCNC(=O)OC(C)(C)C)c4)CC3)c12 [Compound 188, tert-Butyl (3-(3-(4-(5-methyl-7H-pyrrolo[2,3-d]pyrimidin-4-yl)-1,2,3,6-tetrahydropyridine-1-carboxamido)phenoxy)propyl)carbamate] | – | – | – | – | – | –
174 nM | 189 nM | 99% | 93% | Cc1c[nH]c2ncnc(C3=CCN(C(=O)Nc4cccc(OCC5CCN(C)CC5)c4)CC3)c12 [Compound 195, 4-(5-methyl-7H-pyrrolo[2,3-d]pyrimidin-4-yl)-N-(3-((1-methylpiperidin-4-yl)methoxy)phenyl)-3,6-dihydropyridine-1(2H)-carboxamide] | – | – | – | – | – | –
192 nM | 49.3 nM | 21% | 12% | CNC(=O)c1cc(Oc2ccc(NC(=O)N3CC=C(c4ncnc5[nH]cc(C)c45)CC3)cc2)ccn1 [Compound 196, N-methyl-4-(4-(4-(5-methyl-7H-pyrrolo[2,3-d]pyrimidin-4-yl)-1,2,3,6-tetrahydropyridine-1-carboxamido)phenoxy)picolinamide] | – | – | – | – | – | –
70.4 nM | 68.7 nM | 26% | 15% | Cc1c[nH]c2ncnc(C3=CCN(C(=O)Nc4cccc(Oc5ccc(F)cc5)c4)CC3)c12 [Compound 202, N-(3-(4-fluorophenoxy)phenyl)-4-(5-methyl-7H-pyrrolo[2,3-d]pyrimidin-4-yl)-3,6-dihydropyridine-1(2H)-carboxamide] | – | – | – | – | – | –

The remaining lines, values behind:

SMILES | Ki ([1]; Lanthascreen Eu binding assay) | Ki ([2]; Lanthascreen Eu binding assay) | inhibition at 1 µM [3, 5] | inhibition at 1 µM [4, 6] | inhibition at 1 µM [3, 7] | inhibition at 1 µM [4, 8] | Ki [1] | Ki [2] | % inhibition (ROCK1) 1 uM [3] | % inhibition (ROCK2) 1 uM [4]
COc1cccc(-c2cccc(NC(=O)N3CC=C(c4ncnc5[nH]c6c(c45)CCC6)CC3)c2)c1 [Compound 137, N-[3-(3-Methoxyphenyl)phenyl]-4-(7,9,11-triazatricyclo [6.4.0.02,6]dodeca-1(8),2(6),9,11-tetraen-12-yl)-3,6-dihydropyridine-1(2H)-carboxamide] | 4.97 nM | 8.59 nM | -1% | 4% | – | – | – | – | – | –
CN1CCc2[nH]c3ncnc(C4=CCN(C(=O)Nc5cccc(Cl)c5)CC4)c3c2C1 [Compound 161, N-(3-Chlorophenyl)-4-(6-methyl-6,7,8,9-tetrahydro-5H-pyrido[3′,4′:4,5]pyrrolo[2,3-d]pyrimidin-4-yl)-3,6-dihydropyridine-1(2H)-carboxamide] | 1170 nM | 2440 nM | – | – | 1% | -9% | – | – | – | –
CN1CCc2[nH]c3ncnc(C4=CCN(C(=O)Nc5cccc(Br)c5)CC4)c3c2C1 [Compound 162, N-(3-Bromophenyl)-4-(6-methyl-6,7,8,9-tetrahydro-5H-pyrido [3′,4′:4,5]pyrrolo[2,3-d]pyrimidin-4-yl)-3,6-dihydropyridine-1(2H)-carboxamide] | – | – | – | – | 4% | -8% | 722 nM | 1030 nM | – | –
CC(C)(C)OC(=O)NCCCOc1cccc(-c2cccc(NC(=O)N3CC=C(c4ncnc5[nH]cc(C6CC6)c45)CC3)c2)c1 [Compound 165, tert-butyl N-[3-[3-[3-[[4-(5-cyclopropyl-7H-pyrrolo[2,3-d]pyrimidin-4-yl)-3,6-dihydro-2H-pyridine-1-carbonyl]amino]phenyl]phenoxy]propyl]carbamate] | 169 nM | 58.1 nM | -2% | 7% | – | – | – | – | – | –
Cc1c[nH]c2ncnc(C3=CCN(C(=O)Nc4cccc(-c5cccc(OCCCNC(=O)OC(C)(C)C)c5)c4)CC3)c12 [Compound 166, tert-butyl N-[3-[3-[3-[[4-(5-methyl-7H-pyrrolo[2,3-d]pyrimidin-4-yl)-3,6-di hydro-2H-pyridine-1-carbonyl]amino]phenyl]phenoxy]propyl]carbamate] | 94.6 nM | 122 nM | 12% | 2% | – | – | – | – | – | –
CC1=CC(C)=[N+]2C1=Cc1ccc(CCC(=O)NCCCOc3cccc(-c4cccc(NC(=O)N5CC=C(c6ncnc7[nH]c8c(c67)CCC8)CC5)c4)c3)n1[B-]2(F)F [Compound 167, N-(3′-(3-(3-(5,5-Difluoro-7,9-dimethyl-5H-dipyrrolo[1,2-c:2′,1′-f][1,3,2]diazaborinin-3-yl)propanamido)propoxy)-[1,1′-biphenyl]-3-yl)-4-(5,6,7,8-tetrahydrocyclopenta[4,5]pyrrolo[2,3-d]pyrimidin-4-yl)-3,6-dihydropyridine-1(2H)-carboxamide] | – | – | – | – | – | – | 112 nM | 113 nM | −4% | 6%
Cc1c[nH]c2ncnc(C3=CCN(C(=O)Nc4cccc(C(=O)N5CCN(S(C)(=O)=O)CC5)c4)CC3)c12 [Compound 172, 4-(5-methyl-7H-pyrrolo[2,3-d]pyrimidin-4-yl)-N-[3-(4-methylsulfonylpiperazine-1-carbonyl)phenyl]-3,6-dihydro-2H-pyridine-1-carboxamide] | 1080 nM | 2540 nM | 88% | 78% | – | – | – | – | – | –
Cc1c[nH]c2ncnc(C3=CCN(C(=O)Nc4cccc(Oc5cccc(N(C)C)c5)c4)CC3)c12 [Compound 177, N-(3-(3-(dimethylamino)phenoxy)phenyl)-4-(5-methyl-7H-pyrrolo[2,3-d]pyrimidin-4-yl)-3,6-dihydropyridine-1(2H)-carboxamide] | 33.6 nM | 150 nM | 49% | 30% | – | – | – | – | – | –
Cc1c[nH]c2ncnc(C3=CCN(C(=O)Nc4cccc(OCCN5CCN(C)CC5)c4)CC3)c12 [Compound 184, 4-(5-methyl-7H-pyrrolo[2,3-d]pyrimidin-4-yl)-N-(3-(2-(4-methylpiperazin-1-yl)ethoxy)phenyl)-3,6-dihydropyridine-1(2H)-carboxamide] | 710 nM | 1470 nM | 87% | 78% | – | – | – | – | – | –
Cc1c[nH]c2ncnc(C3=CCN(C(=O)Nc4cccc(OCCCN5CCN(C)CC5)c4)CC3)c12 [Compound 185, 4-(5-methyl-7H-pyrrolo[2,3-d]pyrimidin-4-yl)-N-(3-(3-(4-methylpiperazin-1-yl)propoxy)phenyl)-3,6-dihydropyridine-1(2H)-carboxamide] | 669 nM | 863 nM | 99% | 97% | – | – | – | – | – | –
CNC(=O)c1cc(Oc2cccc(NC(=O)N3CC=C(c4ncnc5[nH]cc(C)c45)CC3)c2)ccn1 [Compound 198, N-methyl-4-(3-(4-(5-methyl-7H-pyrrolo[2,3-d]pyrimidin-4-yl)-1,2,3,6-tetrahydropyridine-1-carboxamido)phenoxy)picolinamide] | 3.08 nM | 2.89 nM | 79% | 65% | – | – | – | – | – | –
Cc1c[nH]c2ncnc(C3=CCN(C(=O)Nc4cccc(Oc5cccc(F)c5)c4)CC3)c12 [Compound 200, N-(3-(3-fluorophenoxy)phenyl)-4-(5-methyl-7H-pyrrolo[2,3-d]pyrimidin-4-yl)-3,6-dihydropyridine-1(2H)-carboxamide] | 46.2 nM | 9.83 nM | 35% | 13% | – | – | – | – | – | –
Cc1c[nH]c2ncnc(C3=CCN(C(=O)Nc4cccc(Oc5cccc(Cl)c5)c4)CC3)c12 [Compound 204, N-(3-(3-chlorophenoxy)phenyl)-4-(5-methyl-7H-pyrrolo[2,3-d]pyrimidin-4-yl)-3,6-dihydropyridine-1(2H)-carboxamide] | 50.5 nM | 15.6 nM | 71% | 46% | – | – | – | – | – | –
Cc1c[nH]c2ncnc(C3=CCN(C(=O)Nc4cccc(Oc5ccc(Br)cc5Cl)c4)CC3)c12 [Compound 206, N-(3-(4-bromo-2-chlorophenoxy)phenyl)-4-(5-methyl-7H-pyrrolo[2,3-d]pyrimidin-4-yl)-3,6-dihydropyridine-1(2H)-carboxamide] | 418 nM | 676 nM | 13% | 3% | – | – | – | – | – | –
Cc1c[nH]c2ncnc(C3=CCN(C(=O)Nc4cccc(Oc5cccnc5)c4)CC3)c12 [Compound 208, 4-(5-methyl-7H-pyrrolo[2,3-d]pyrimidin-4-yl)-N-(3-(pyridin-3-yloxy)phenyl)-3,6-dihydropyridine-1(2H)-carboxamide] | 37.3 nM | 7.57 nM | 91% | 72% | – | – | – | – | – | –
